Assay [1] concerns the target Protein farnesyltransferase (Homo sapiens, UniProt P49354+P49356). In words: Inhibition of human recombinant farnesyltransferase. It is filed as protein-complex assay.
Assay [2] is described as follows: Inhibition of Geranylgeranyl transferase type I.

Broadly, the IC50 is the concentration that gives 50% inhibition.

For `CC(=O)O[C@H]1CC[C@]2(C)[C@H]3Cc4c(O)cc5c(c4O[C@@]3(C)CC[C@H]2C1(C)C)COC5=O` [KAMPANOL A], the 50% inhibitory concentration (IC50) in assay [1] is 13 µM; in assay [2], greater than 100 µM.

In the case of `CC(=O)O[C@H]1CC[C@]2(C)[C@H]3Cc4c(O)cc(CO)c(CO)c4O[C@@]3(C)CC[C@H]2C1(C)C`, the IC50 in assay [1] is 460 µM; in assay [2], greater than 100 µM.

Take `COC1OC(OC)c2c1cc(O)c1c2O[C@@]2(C)CC[C@H]3C(C)(C)[C@@H](OC(C)=O)CC[C@]3(C)[C@H]2C1` (stereo partly drawn): the 50% inhibitory concentration (IC50) in assay [1] was 7 µM; in assay [2] it was greater than 100 µM.

Regarding `CC(=O)O[C@H]1CC[C@]2(C)[C@H]3Cc4c(O)cc(C=O)c(C=O)c4O[C@@]3(C)CC[C@H]2C1(C)C`, the IC50 is 560 µM in assay [1] and greater than 100 µM in assay [2].
